Entries after “also recorded” stand apart in the source; their conditions may differ.
System: endothelial cells
Experiment: CoCl2-induced apoptosis of endothelial cells (Annexin-FITC/PI FACS)
Format: cell-based, human
Settings: normoxia, 100 micromolar per 100,000 cells CoCl2, 10 ng/ml peptide 24 hours
Method: FIGS. 33a-f are representative FACS analyses depicting a specific inhibition of hypoxia-induced apoptosis of endothelial cells by ADOPep1. Endothelial cells in Petri dishes were incubated for 24 hours with 5% FCS in supplement-free endothelial cell growth medium under normoxia (FIGS. 33a and d), exposed to 24 hours hypoxia (Figures c and f) or incubated under normoxia with 100 micromolar per 100,000 cells CoCl2 (FIGS. 33b and e), in the absence (FIGS. 33a-c) or presence (FIGS. 33d-f) of 10 ng/ml Adopep1 peptide (for 24 hours). Cells were trypsinized and immediately re-suspended in PBS with 5% FCS and 0.1% Na-azide. Samples containing 100,000 cells were tested for apoptosis using the Annexin-FITC (X axis) and propidium iodide (Y axis) kit (Bender Medsystems, Vienna, Austria), according to manufacturer's instructions. Results were analyzed by FACScan (Beckton Dickinson).
FIG. 34 is a histogram depicting the FACS results of the experiments described in FIGS. 33a-f. Data represents average±SD of 2 experiments.

## HWRRAHLLPRLP [ADOPep1, ADAM15 derived peptide, amino acids 286-297 of the metalloprotease domain]
  effect on CoCl2 induced apoptosis: no effect on apoptosis induced by CoCl2; also recorded: not the CoCl2 induced apoptosis
Listed as AdoPep1
  effect on CoCl2 induced apoptosis: did not inhibit apoptosis of endothelial cells exposed to the apoptotic inducer Cobalt-Chloride
